The source of these data is patent US11512053B2, “Arginine methyltransferase inhibitors and uses thereof” (priority 2013, dated 2022).

Assay [1] deals with full-length human PRMT8 isoform 1 (Homo sapiens, UniProt Q9NR22). Kind of assay: PRMT8 Biochemical Assay (3H-SAM Flashplate, peptide substrate). The conditions noted are these: read-out: Biochemical IC50 PRMT8. The text has this: General Materials. S-adenosylmethionine (SAM), S-adenosylhomocysteine (SAH), bicine, Tween20, dimethylsulfoxide (DMSO), bovine skin gelatin (BSG), isopropyl-β-D-thiogalactopyranoside (IPTG), and Tris(2-carboxyethyl)phosphine hydrochloride solution (TCEP) were purchased from Sigma-Aldrich at the highest level of purity possible. ^3H-SAM was purchase from American Radiolabeled Chemicals with a specific activity of 80 Ci/mmol. 384-well streptavidin Flashplates were purchased from PerkinElmer.
Sequence of full-length human PRMT8 isoform 1 (Q9NR22 whole entry, the tested form may be a part, canonical isoform): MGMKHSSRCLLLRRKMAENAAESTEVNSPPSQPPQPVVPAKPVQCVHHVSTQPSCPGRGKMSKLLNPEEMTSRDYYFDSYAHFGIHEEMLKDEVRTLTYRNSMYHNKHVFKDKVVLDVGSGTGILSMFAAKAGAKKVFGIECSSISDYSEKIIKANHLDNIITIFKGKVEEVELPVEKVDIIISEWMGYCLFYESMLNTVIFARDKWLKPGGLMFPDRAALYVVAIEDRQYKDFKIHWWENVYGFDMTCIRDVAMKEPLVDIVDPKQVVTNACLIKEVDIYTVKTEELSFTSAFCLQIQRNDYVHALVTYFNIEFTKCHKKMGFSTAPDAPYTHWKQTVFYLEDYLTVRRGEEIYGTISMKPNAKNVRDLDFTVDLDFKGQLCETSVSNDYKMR
Substrates. Peptide representative of human histone H4 residues 31-45 was synthesized with an N-terminal linker-affinity tag motif and a C-terminal amide cap by 21st Century Biochemicals. The peptide was purified by high-performance liquid chromatography (HPLC) to greater than 95% purity and confirmed by liquid chromatography mass spectrometry (LC-MS). The sequence was Biot-Ahx-[…]-amide (SEQ ID NO.:8).
The resulting construct encodes an N-terminal GST tag and a thrombin cleavage sequence ([…] […] […] […] SPEF) (SEQ ID NO.:9) fused directly to Met 1 of PRMT8.
Protein Expression. E. coli (BL21(DE3) Gold, Stratagene) made competent by the CaCl2) method were transformed with the PRMT8 construct and ampicillin selection. Protein over-expression was accomplished by growing the PRMT8 expressing E. coli clone and inducing expression with 0.3 mM IPTG at 16° C. The culture was grown for 12 hours, harvested by centrifugation, and stored at −80° C. for purification.
Protein Purification. […] GST-tagged PRMT8 was eluted with 50 mM Tris, 2 mM glutathione, pH 7.8. Pooled fractions were cleaved by thrombin (10U) and dialysed in buffer A. GST was removed by reloading the cleaved protein sample onto glutathione sepharose column and PRMT8 was collected in the flow-through fractions. PRMT8 was purified further by ceramic hydroxyapatite chromatography. The column was washed with 50 mM phosphate buffer, 100 mM NaCl, 5% glycerol, 5 mM β-mercaptoethanol, pH 7.8 and PRMT8 was eluted by 100 mM phosphate in the same buffer. Protein was concentrated and buffer was exchanged to 50 mM Tris, 300 mM NaCl, 10% glycerol, 5 mM β-mercaptoethanol, pH 7.8 by ultrafiltration. The purity of recovered protein was 89%.
General Procedure for PRMT8 Enzyme Assays on Peptide Substrates. The assays were all performed in a buffer consisting of 20 mM Bicine (pH=7.6), 1 mM TCEP, 0.005% BSG, and 0.002% Tween 20, prepared on the day of use. Compounds in 100% DMSO (1 ul) were spotted into a polypropylene 384-well V-bottom plates (Greiner) using a Platemate Plus outfitted with a 384-channel head (Thermo Scientific). DMSO (1 ul) was added to Columns 11, 12, 23, 24, rows A-H for the maximum signal control and 1 ul of SAH, a known product and inhibitor of PRMT8, was added to columns 11, 12, 23, 24, rows I-P for the minimum signal control. A cocktail (40 ul) containing the PRMT8 enzyme was added by Multidrop Combi (Thermo-Fisher). The compounds were allowed to incubate with PRMT8 for 30 min at room temperature, then a cocktail (10 ul) containing ^3H-SAM and peptide was added to initiate the reaction (final volume=51 ul). The final concentrations of the components were as follows: PRMT8 was 1.5 nM, ^3H-SAM was 50 nM, non-radiolabeled SAM was 550 nM, peptide was 150 nM, SAH in the minimum signal control wells was 1 mM, and the DMSO concentration was 2%. The assays were stopped by the addition of non-radiolabeled SAM (10 ul) to a final concentration of 400 uM, which dilutes the ^3H-SAM to a level where its incorporation into the peptide substrate is no longer detectable. 50 ul of the reaction in the 384-well polypropylene plate was then transferred to a 384-well Flashplate and the biotinylated peptides were allowed to bind to the streptavidin surface for at least 1 hour before being washed once with 0.1% Tween20 in a Biotek ELx405 plate washer. […]

The target in assay [2] is full-length human PRMT1 isoform 1 (GST-tagged) (Homo sapiens, UniProt Q99873). Kind of assay: PRMT1 Biochemical Assay (3H-SAM Flashplate, peptide substrate). An excerpt:
General Materials. S-adenosylmethionine (SAM), S-adenosylhomocysteine (SAH), bicine, Tween20, dimethylsulfoxide (DMSO), bovine skin gelatin (BSG), and Tris(2-carboxyethyl)phosphine hydrochloride solution (TCEP) were purchased from Sigma-Aldrich at the highest level of purity possible. ^3H-SAM was purchase from American Radiolabeled Chemicals with a specific activity of 80 Ci/mmol. 384-well streptavidin Flashplates were purchased from PerkinElmer.
Protein Expression. Recombinant baculovirus were generated according to Bac-to-Bac kit instructions (Life Technologies). […] Infections were carried out at 27° C. for 48 hours, harvested by centrifugation, and stored at −80° C. for purification.
Protein Purification. […] GST-tagged PRMT1 was eluted with 50 mM Tris, 2 mM glutathione, pH 7.8, dialysed in buffer A and concentrated to 1 mg/mL.
General Procedure for PRMT1 Enzyme Assays on Peptide Substrates. The assays were all performed in a buffer consisting of 20 mM Bicine (pH=7.6), 1 mM TCEP, 0.005% BSG, and 0.002% Tween 20, prepared on the day of use. […] DMSO (1 ul) was added to Columns 11, 12, 23, 24, rows A-H for the maximum signal control and 1 ul of SAH, a known product and inhibitor of PRMT1, was added to columns 11, 12, 23, 24, rows I-P for the minimum signal control. A cocktail (40 ul) containing the PRMT1 enzyme was added by Multidrop Combi (Thermo-Fisher). The compounds were allowed to incubate with PRMT1 for 30 min at room temperature, then a cocktail (10 ul) containing SAM and peptide was added to initiate the reaction (final volume=51 ul). […] The assays were stopped by the addition of non-radiolabeled SAM (10 ul) to a final concentration of 300 uM, which dilutes the ^3H-SAM to a level where its incorporation into the peptide substrate is no longer detectable. 50 ul of the reaction in the 384-well polypropylene plate was then transferred to a 384-well Flashplate and the biotinylated peptides were allowed to bind to the streptavidin surface for at least 1 hour before being washed once with 0.1% Tween20 in a Biotek ELx405 plate washer. The plates were then read in a PerkinElmer TopCount plate reader to measure the quantity of ^3H-labeled peptide bound to the Flashplate surface, measured as disintegrations per minute (dpm) or alternatively, referred to as counts per minute (cpm).
Where dpm=disintegrations per minute, cmpd=signal in assay well, and min and max are the respective minimum and maximum signal controls.
Where top and bottom are the normally allowed to float, but may be fixed at 100 or 0 respectively in a 3-parameter fit. The Hill Coefficient normally allowed to float but may also be fixed at 1 in a 3-parameter fit. Y is the % inhibition and X is the compound concentration.

Setting [3] is: single experiment or average of multiple experiments.

Each structure is given as a SMILES string. Like-named read-outs stand apart in the source and are kept apart here.

Sequence of full-length human PRMT1 isoform 1 (GST-tagged) (Q99873 with tags, fused parts or gaps): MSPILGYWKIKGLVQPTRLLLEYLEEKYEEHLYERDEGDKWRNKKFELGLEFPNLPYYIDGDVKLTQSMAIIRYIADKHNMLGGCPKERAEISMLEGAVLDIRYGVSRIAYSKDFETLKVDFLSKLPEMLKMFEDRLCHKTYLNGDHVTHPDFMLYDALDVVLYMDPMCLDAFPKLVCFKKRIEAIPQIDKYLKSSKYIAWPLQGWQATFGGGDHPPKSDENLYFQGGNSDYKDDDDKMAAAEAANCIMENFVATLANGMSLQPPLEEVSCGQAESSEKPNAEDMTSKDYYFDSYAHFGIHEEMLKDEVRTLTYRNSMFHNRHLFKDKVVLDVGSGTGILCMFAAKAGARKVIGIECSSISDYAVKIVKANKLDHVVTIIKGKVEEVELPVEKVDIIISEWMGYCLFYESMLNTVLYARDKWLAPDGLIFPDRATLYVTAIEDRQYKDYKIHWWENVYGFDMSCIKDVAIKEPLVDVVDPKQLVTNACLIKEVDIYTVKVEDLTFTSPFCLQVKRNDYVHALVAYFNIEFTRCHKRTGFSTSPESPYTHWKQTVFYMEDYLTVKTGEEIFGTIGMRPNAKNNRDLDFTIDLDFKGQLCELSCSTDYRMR

Take `CCC(=O)N(CC1CCOCC1)[C@H]1CC[C@H](c2n[nH]cc2CN(C)CCNC)CC1` [Compound 109]: the IC50 was less than 100 nM in assay [1], 56 nM in assay [1] (setting [3]), less than 100 nM in assay [2] and 26.7 nM in assay [2] (setting [3]).

With `CNCCN(C)Cc1c[nH]nc1C1CCC(=O)N(CCc2ccccc2)C1` (stereo not shown) [Compound 110], the IC50 in assay [1] is less than 100 nM; in assay [1] (setting [3]), 42.9 nM; in assay [2], less than 100 nM; in assay [2] (setting [3]), 13.1 nM.

For the compound `CNCCN(C)Cc1c[nH]nc1[C@H]1CC[C@]2(CCN(Cc3ccc(OCCOC)cc3)C2=O)CC1` [Compound 111], the IC50 in assay [1] is less than 100 nM; in assay [1] (setting [3]), 59.9 nM; in assay [2], less than 100 nM; in assay [2] (setting [3]) it was 22.4 nM.

As for `CNCCN(C)Cc1c[nH]nc1C1CCCC(COCCOC)C1` (stereo not shown) [Compound 112], the IC50 in assay [1] was less than 100 nM; in assay [1] (setting [3]), 69.2 nM; in assay [2] it was less than 100 nM; in assay [2] (setting [3]) it was 18.9 nM.

For the compound `CNCCN(C)Cc1c[nH]nc1C1CCCC(COCCC(O)CO)C1` (stereo not shown) [Compound 113], the IC50 in assay [1] was 101 to 1000 nM; in assay [1] (setting [3]) it was 119 nM; in assay [2], less than 100 nM; in assay [2] (setting [3]), 57.2 nM.

Take `CNCCN(C)Cc1c[nH]nc1C1CCC(N(CC(C)C)C(=O)CC2CCOCC2)CC1` (stereo not shown) [Compound 114]: the IC50 in assay [1] was 101 to 1000 nM; in assay [1] (setting [3]) it was 340 nM; in assay [2] it was 101 to 1000 nM; in assay [2] (setting [3]), 101 nM.

With `CNCCN(C)Cc1c[nH]nc1C1CCC(=O)N(Cc2ccccc2)C1` (stereo not shown) [Compound 115], the IC50 in assay [1] is 101 to 1000 nM; in assay [1] (setting [3]) it was 196 nM; in assay [2] it was less than 100 nM; in assay [2] (setting [3]), 88.7 nM.

Regarding `CNCCN(C)Cc1c[nH]nc1[C@H]1CC[C@H](OCCOc2ccc(OCCOC)cc2)CC1` [Compound 116], the IC50 in assay [1] was less than 100 nM; in assay [1] (setting [3]), 11.8 nM; in assay [2], less than 100 nM; in assay [2] (setting [3]), 9.8 nM.

Take `CNCCN(C)Cc1c[nH]nc1C1CCC(=O)N(CCC(C)C)C1` (stereo not shown) [Compound 117]: the IC50 in assay [1] was 101 to 1000 nM; in assay [1] (setting [3]), 143 nM; in assay [2] it was less than 100 nM; in assay [2] (setting [3]), 38.6 nM.

`CNCCN(C)Cc1c[nH]nc1C1CC(OC(C)C)CC(OC(C)C)C1` (stereo not shown) [Compound 118]: the IC50 was greater than 10000 nM in assay [1], greater than 10000 nM in assay [1] (setting [3]), 1010 to 3000 nM in assay [2] and 2160 nM in assay [2] (setting [3]).

As to `CCOCC1CC(COCC)CC(c2n[nH]cc2CN(C)CCNC)C1` (stereo not shown) [Compound 119], the IC50 in assay [1] is 101 to 1000 nM; in assay [1] (setting [3]), 728 nM; in assay [2] it was 101 to 1000 nM; in assay [2] (setting [3]), 124 nM.

Turning to `CNCCN(C)Cc1c[nH]nc1[C@H]1CC[C@@]2(CCN(Cc3ccc(OCCOC)cc3)C2=O)CC1` [Compound 120], the IC50 in assay [1] is less than 100 nM; in assay [1] (setting [3]), 25.1 nM; in assay [2] it was less than 100 nM; in assay [2] (setting [3]), 10.1 nM.

For `CNCCN(C)Cc1c[nH]nc1C1CCC2(CC1)OC(C)CC(C)O2` (stereo not shown) [Compound 121], the IC50 in assay [1] was less than 100 nM; in assay [1] (setting [3]) it was 32.6 nM; in assay [2] it was less than 100 nM; in assay [2] (setting [3]) it was 15.2 nM.

As for `CNCCN(C)Cc1c[nH]nc1C1CC(OCC(C)C)CC(OCC(C)C)C1` (stereo not shown) [Compound 122], the IC50 in assay [1] was 3010 to 10000 nM; in assay [1] (setting [3]), 8370 nM; in assay [2], 101 to 1000 nM; in assay [2] (setting [3]), 421 nM.

`CNCCN(C)Cc1c[nH]nc1[C@H]1CC[C@]2(CCN(Cc3ccc(F)cc3)C2=O)CC1` [Compound 123]: the concentration for half-maximal inhibition (IC50) in assay [1] was less than 100 nM; in assay [1] (setting [3]), 24.7 nM; in assay [2], less than 100 nM; in assay [2] (setting [3]) it was 8.8 nM.

Turning to `CNCCN(C)Cc1c[nH]nc1[C@H]1CC[C@]2(CCN(CC(C)C)C2=O)CC1` [Compound 124], the IC50 in assay [1] was less than 100 nM; in assay [1] (setting [3]) it was 10.8 nM; in assay [2] it was less than 100 nM; in assay [2] (setting [3]), 6.4 nM.

On to `CNCCN(C)Cc1c[nH]nc1[C@H]1CC[C@@]2(CCN(Cc3ccc(F)cc3)C2=O)CC1` [Compound 125], for which the IC50 in assay [1] is less than 100 nM; in assay [1] (setting [3]), 9 nM; in assay [2] it was less than 100 nM; in assay [2] (setting [3]), 5.3 nM.

On to `CNCCN(C)Cc1c[nH]nc1[C@H]1CC[C@@]2(CCN(Cc3cc(F)cc(F)c3)C2=O)CC1` [Compound 126], for which the IC50 in assay [1] is less than 100 nM; in assay [1] (setting [3]) it was 6.5 nM; in assay [2], less than 100 nM; in assay [2] (setting [3]) it was 4 nM.

As to `CNCCN(C)Cc1c[nH]nc1[C@H]1CC[C@@]2(CCN(Cc3ccccc3)C2=O)CC1` [Compound 127], the IC50 in assay [1] was less than 100 nM; in assay [1] (setting [3]) it was 47.8 nM; in assay [2], less than 100 nM; in assay [2] (setting [3]) it was 16.5 nM.

Consider `CNCCN(C)Cc1c[nH]nc1[C@H]1CC[C@]2(CCN(Cc3ccccc3)C2=O)CC1` [Compound 128], for which the IC50 was less than 100 nM in assay [1], 8.2 nM in assay [1] (setting [3]), less than 100 nM in assay [2] and 5.2 nM in assay [2] (setting [3]).

For `CNCCN(C)Cc1c[nH]nc1[C@H]1CC[C@@]2(CCN(CC(C)C)C2=O)CC1` [Compound 129], the IC50 in assay [1] is less than 100 nM; in assay [1] (setting [3]), 83.7 nM; in assay [2], less than 100 nM; in assay [2] (setting [3]) it was 23.6 nM.

For `CNCCN(C)Cc1c[nH]nc1C1CCC2(CC1)CCC(F)(F)CC2` [Compound 130], the IC50 in assay [1] was less than 100 nM; in assay [1] (setting [3]), 4.5 nM; in assay [2], less than 100 nM; in assay [2] (setting [3]), 3.4 nM.
